Patent publication US8952024B2, “Herbicidal pyrimidone derivatives” (E I du Pont de Nemours and Company, priority 2009, dated 2015)
Like-named read-outs stand apart in the source and are kept apart here.

Legend:
Assay in all cases: Test B pre-/postemergence plant response
Format in all cases: in vivo
[1] = system: woolly cupgrass (Eriochloa villosa); conditions: Preemergence
Procedure, shortened: (§1)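 Seeds were sown in loam soil/sand blend and treated preemergence with compound in non-phytotoxic solvent mixture containing surfactant; postemergence sprays, same formulation, went onto plants 2 to 18 cm (1- to 4-leaf stage) in peat-based planting medium. Greenhouse 13 to 15 days, then visual rating versus untreated controls, 0 (no effect) to 100 (complete control).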

[2] = system: downy bromegrass (Bromus tectorum); conditions: for pest or weed control at 16 g/ha: 16 g ai/ha; for pest or weed control at 16 g/ha / pest or weed control at 31 g/ha / pest or weed control at 62 g/ha: read-out: Plant response rating, Bromegrass, Downy; for pest or weed control at 31 g/ha: 31 g ai/ha; for pest or weed control at 62 g/ha: 62 g ai/ha
Procedure, shortened: as §1

[3] = system: Surinam grass (Brachiaria decumbens); conditions: for pest or weed control at 31 g/ha: 31 g ai/ha; for pest or weed control at 62 g/ha: 62 g ai/ha
Procedure, shortened: as §1

corn (Zea mays) = conditions: for Corn plant response rating (crop injury, 0 = no effect, 100 = complete kill) at 16 g/ha: 16 g ai/ha; for Corn plant response rating (crop injury, 0 = no effect, 100 = complete kill) at 31 g/ha: 31 g ai/ha; for Corn plant response rating (crop injury, 0 = no effect, 100 = complete kill) at 62 g/ha: 62 g ai/ha
Procedure, shortened: as §1

[4] = system: giant foxtail (Setaria faberii); conditions: for pest or weed control at 16 g/ha: 16 g ai/ha; for pest or weed control at 16 g/ha / pest or weed control at 31 g/ha / pest or weed control at 62 g/ha: read-out: Plant response rating, Foxtail, Giant; for pest or weed control at 31 g/ha: 31 g ai/ha; for pest or weed control at 62 g/ha: 62 g ai/ha
Procedure, shortened: as §1

[5] = system: goosegrass (Eleusine indica); conditions: for pest or weed control at 16 g/ha: 16 g ai/ha; for pest or weed control at 16 g/ha / pest or weed control at 31 g/ha / pest or weed control at 62 g/ha: read-out: Plant response rating, Goosegrass; for pest or weed control at 31 g/ha: 31 g ai/ha; for pest or weed control at 62 g/ha: 62 g ai/ha
Procedure, shortened: as §1

kochia (Kochia scoparia) = conditions: for pest or weed control at 16 g/ha: 16 g ai/ha; for pest or weed control at 16 g/ha / pest or weed control at 31 g/ha / pest or weed control at 62 g/ha: read-out: Plant response rating, Kochia; for pest or weed control at 31 g/ha: 31 g ai/ha; for pest or weed control at 62 g/ha: 62 g ai/ha
Procedure, shortened: as §1

[6] = system: yellow nutsedge (Cyperus esculentus); conditions: for pest or weed control at 16 g/ha: 16 g ai/ha; for pest or weed control at 16 g/ha / pest or weed control at 31 g/ha / pest or weed control at 62 g/ha: read-out: Plant response rating, Nutsedge, Yellow; for pest or weed control at 31 g/ha: 31 g ai/ha; for pest or weed control at 62 g/ha: 62 g ai/ha
Procedure, shortened: as §1

[7] = system: ragweed (common ragweed, Ambrosia elatior); conditions: for pest or weed control at 31 g/ha: 31 g ai/ha; for pest or weed control at 62 g/ha: 62 g ai/ha
Procedure, shortened: as §1

[8] = Bromus tectorum, pre-emergence, Preemergence, scale 0 to 100 (0 no effect, 100 complete control)
[9] = Preemergence, 125 g ai/ha, 0 to 100 scale
[10] = Urochloa decumbens, pre-emergence, Preemergence, scale 0 to 100 (0 no effect, 100 complete control), read-out: Plant response rating, Surinam Grass
[11] = Zea mays, pre-emergence, Preemergence, scale 0 to 100 (0 no effect, 100 complete control)
[12] = Setaria faberi, pre-emergence, Preemergence, scale 0 to 100 (0 no effect, 100 complete control)
[13] = Eleusine indica, pre-emergence, Preemergence, scale 0 to 100 (0 no effect, 100 complete control)
[14] = Bassia scoparia, pre-emergence, Preemergence, scale 0 to 100 (0 no effect, 100 complete control)
[15] = Cyperus, pre-emergence, Preemergence, scale 0 to 100 (0 no effect, 100 complete control)
[16] = Ambrosia artemisiifolia, pre-emergence, 360 h, Preemergence, scale 0 to 100 (0 no effect, 100 complete control), read-out: Plant response rating, Ragweed

O=C1CCCC(O)=C1C(=O)c1cnc(-c2ccccc2)n(-c2ccccc2)c1=O [Compound 2, 5-[(2-hydroxy-6-oxo-1-cyclohexen-1-yl)carbonyl]-2,3-diphenyl-4(3H)-pyrimidinone]
pest or weed control at 16 g/ha ([1]; Eriochloa villosa, pre-emergence, 16 g ai/ha, scale 0 to 100 (0 no effect, 100 complete control), read-out: Plant response rating, Cupgrass, Woolly): 0%
pest or weed control at 31 g/ha ([1]; Eriochloa villosa, pre-emergence, 31 g ai/ha, scale 0 to 100 (0 no effect, 100 complete control), read-out: Plant response rating, Cupgrass, Woolly): 0%
pest or weed control at 62 g/ha ([1]; Eriochloa villosa, pre-emergence, 62 g ai/ha, scale 0 to 100, 0 no effect, 100 complete control, read-out: Plant response rating, Cupgrass, Woolly): 15%
Cupgrass, Woolly plant response rating ([1]; 125 g ai/ha, 0 to 100 scale): 20
pest or weed control at 16 g/ha ([2]; Bromus tectorum, post-emergence, Postemergence, 0 to 100 scale): 20%
pest or weed control at 31 g/ha ([2]; Bromus tectorum, post-emergence, Postemergence, scale 0 to 100 (0 no effect, 100 complete control)): 35%
pest or weed control at 62 g/ha ([2]; Bromus tectorum, post-emergence, Postemergence, scale 0 (no effect) to 100 (complete control), 13 to 15 days): 60%
pest or weed control at 125 g/ha ([2]; Bromus tectorum, post-emergence, Postemergence, 125 g ai/ha, visual rating after 13 to 15 days, scale 0 (no effect) to 100 (complete control)): 80%
pest or weed control at 16 g/ha [2, 8]: 0%
pest or weed control at 31 g/ha [2, 8]: 0%
pest or weed control at 62 g/ha ([2]; Bromus tectorum, pre-emergence, Preemergence, scale 0 to 100, 0 no effect, 100 complete control): 0%
Bromegrass, Downy plant response rating [2, 9]: 5
Surinam Grass plant response rating [3, 9]: 60
pest or weed control at 16 g/ha ([3]; Urochloa decumbens, post-emergence, 16 g ai/ha, Postemergence, 0 to 100 scale, read-out: Plant response rating, Surinam Grass): 70%
pest or weed control at 31 g/ha ([3]; Urochloa decumbens, post-emergence, Postemergence, scale 0 to 100 (0 no effect, 100 complete control), read-out: Plant response rating, Surinam Grass): 70%
pest or weed control at 62 g/ha ([3]; Urochloa decumbens, post-emergence, Postemergence, scale 0 (no effect) to 100 (complete control), 13 to 15 days, read-out: Plant response rating, Surinam Grass): 75%
pest or weed control at 125 g/ha ([3]; Urochloa decumbens, post-emergence, Postemergence, 125 g ai/ha, visual rating after 13 to 15 days, scale 0 (no effect) to 100 (complete control)): 85%
pest or weed control at 31 g/ha [3, 10]: 15%
pest or weed control at 62 g/ha [3, 10]: 20%
Corn plant response rating (corn (Zea mays); [9]): 0
Corn plant response rating (crop injury, 0 = no effect, 100 = complete kill) at 16 g/ha (corn (Zea mays); Zea mays, post-emergence, Postemergence, 0 to 100 scale): 15%
Corn plant response rating (crop injury, 0 = no effect, 100 = complete kill) at 31 g/ha (corn (Zea mays); Zea mays, post-emergence, Postemergence, scale 0 to 100 (0 no effect, 100 complete control)): 15%
Corn plant response rating (crop injury, 0 = no effect, 100 = complete kill) at 62 g/ha (corn (Zea mays); Zea mays, post-emergence, Postemergence, scale 0 (no effect) to 100 (complete control), 13 to 15 days): 25%
Corn plant response rating (crop injury, 0 = no effect, 100 = complete kill) at 125 g/ha (corn (Zea mays); Zea mays, post-emergence, Postemergence, 125 g ai/ha, visual rating after 13 to 15 days, scale 0 (no effect) to 100 (complete control)): 35%
Corn plant response rating (crop injury, 0 = no effect, 100 = complete kill) at 16 g/ha (corn (Zea mays); [11]): 0%
Corn plant response rating (crop injury, 0 = no effect, 100 = complete kill) at 31 g/ha (corn (Zea mays); [11]): 0%
Corn plant response rating (crop injury, 0 = no effect, 100 = complete kill) at 62 g/ha (corn (Zea mays); Zea mays, pre-emergence, Preemergence, scale 0 to 100, 0 no effect, 100 complete control): 0%
Foxtail, Giant plant response rating [4, 9]: 70
pest or weed control at 16 g/ha ([4]; Setaria faberi, post-emergence, Postemergence, 0 to 100 scale): 70%
pest or weed control at 31 g/ha ([4]; Setaria faberi, post-emergence, Postemergence, scale 0 to 100 (0 no effect, 100 complete control)): 85%
pest or weed control at 62 g/ha ([4]; Setaria faberi, post-emergence, Postemergence, scale 0 (no effect) to 100 (complete control), 13 to 15 days): 85%
pest or weed control at 125 g/ha ([4]; Setaria faberi, post-emergence, Postemergence, 125 g ai/ha, visual rating after 13 to 15 days, scale 0 (no effect) to 100 (complete control)): 85%
pest or weed control at 16 g/ha [4, 12]: 0%
pest or weed control at 31 g/ha [4, 12]: 15%
pest or weed control at 62 g/ha ([4]; Setaria faberi, pre-emergence, Preemergence, scale 0 to 100, 0 no effect, 100 complete control): 20%
pest or weed control at 16 g/ha ([5]; Eleusine indica, post-emergence, Postemergence, 0 to 100 scale): 80%
pest or weed control at 31 g/ha ([5]; Eleusine indica, post-emergence, Postemergence, scale 0 to 100 (0 no effect, 100 complete control)): 80%
pest or weed control at 62 g/ha ([5]; Eleusine indica, post-emergence, Postemergence, scale 0 (no effect) to 100 (complete control), 13 to 15 days): 90%
pest or weed control at 125 g/ha ([5]; Eleusine indica, post-emergence, Postemergence, 125 g ai/ha, visual rating after 13 to 15 days, scale 0 (no effect) to 100 (complete control)): 95%
pest or weed control at 16 g/ha [5, 13]: 0%
pest or weed control at 31 g/ha [5, 13]: 85%
pest or weed control at 62 g/ha ([5]; Eleusine indica, pre-emergence, Preemergence, scale 0 to 100, 0 no effect, 100 complete control): 100%
Goosegrass plant response rating [5, 9]: 100
pest or weed control at 16 g/ha (kochia (Kochia scoparia); Bassia scoparia, post-emergence, Postemergence, 0 to 100 scale): 55%
pest or weed control at 31 g/ha (kochia (Kochia scoparia); Bassia scoparia, post-emergence, Postemergence, scale 0 to 100 (0 no effect, 100 complete control)): 60%
pest or weed control at 62 g/ha (kochia (Kochia scoparia); Bassia scoparia, post-emergence, Postemergence, scale 0 (no effect) to 100 (complete control), 13 to 15 days): 75%
pest or weed control at 125 g/ha (kochia (Kochia scoparia); Bassia scoparia, post-emergence, Postemergence, 125 g ai/ha, visual rating after 13 to 15 days, scale 0 (no effect) to 100 (complete control)): 80%
pest or weed control at 16 g/ha (kochia (Kochia scoparia); [14]): 0%
pest or weed control at 31 g/ha (kochia (Kochia scoparia); [14]): 100%
pest or weed control at 62 g/ha (kochia (Kochia scoparia); [14]): 100%
Kochia plant response rating (kochia (Kochia scoparia); [9]): 100
pest or weed control at 16 g/ha ([6]; Cyperus, post-emergence, Postemergence, 0 to 100 scale): 40%
pest or weed control at 31 g/ha ([6]; Cyperus, post-emergence, Postemergence, scale 0 to 100 (0 no effect, 100 complete control)): 45%
pest or weed control at 62 g/ha ([6]; Cyperus, post-emergence, Postemergence, scale 0 (no effect) to 100 (complete control), 13 to 15 days): 60%
pest or weed control at 125 g/ha ([6]; Cyperus, post-emergence, Postemergence, 125 g ai/ha, visual rating after 13 to 15 days, scale 0 (no effect) to 100 (complete control)): 75%
pest or weed control at 16 g/ha [6, 15]: 0%
pest or weed control at 31 g/ha [6, 15]: 15%
pest or weed control at 62 g/ha [6, 15]: 40%
Nutsedge, Yellow plant response rating [6, 9]: 70
pest or weed control at 16 g/ha ([7]; Ambrosia artemisiifolia, post-emergence, 360 h, 16 g ai/ha, Postemergence, 0 to 100 scale, read-out: Plant response rating, Ragweed): 65%
pest or weed control at 31 g/ha ([7]; Ambrosia artemisiifolia, post-emergence, 360 h, Postemergence, scale 0 to 100 (0 no effect, 100 complete control), read-out: Plant response rating, Ragweed): 70%
pest or weed control at 62 g/ha ([7]; Ambrosia artemisiifolia, post-emergence, 360 h, Postemergence, scale 0 (no effect) to 100 (complete control), 13 to 15 days, read-out: Plant response rating, Ragweed): 80%
pest or weed control at 125 g/ha ([7]; Ambrosia artemisiifolia, post-emergence, 360 h, Postemergence, 125 g ai/ha, visual rating after 13 to 15 days, scale 0 (no effect) to 100 (complete control)): 90%
pest or weed control at 31 g/ha [7, 16]: 60%
pest or weed control at 62 g/ha [7, 16]: 85%
Ragweed plant response rating [7, 9]: 98
